In patent publication US8039532B2, “Heterocyclic compound, ultraviolet absorbent and composition containing the same” (Fujifilm Corporation, priority 2007, dated 2011):

What was measured:
Assay type in all cases: physicochemical
[1] = Degree of coloring of UV agent-containing polyethylene terephthalate films (Example 43); design: key to Colored (visual): ∘: Not colored; Δ: Slightly colored; x: Distinctly colored; details: PET film 50 μm; for absorbance at 420 nm / absorbance at 440 nm / absorbance at 460 nm: quantity giving 1% at 400 nm; for Colored (visual): visual examination; for absorbance at 400 nm: quantity adjusted so that value at 400 nm became 1%
Method: To 15 g of polyethylene terephthalate, the exemplified compounds (81) and (82) were added, respectively, in a quantity such that absorbance at 400 nm became 1% at the time of forming a film with a thickness of 50 μm. After fusion mixing at 265° C., UV agent-containing polymer films (401) and (402) were prepared by cooling and stretching. Further, UV agent-containing polymer films (403) and (404) were prepared by mixing and thin film-making in the same manner as the above films, except that a comparative compound Za and the abovementioned comparative compound 12 were used in place of the exemplified compounds.
A degree of coloring in each of the prepared samples was evaluated by measuring absorbance of the sample at 420 nm 440 nm and 460 nm, and also by examining them visually.

[2] = Light fastness of ethyl acetate solutions under xenon lamp irradiation (Example 39); details: ethyl acetate solution, xenon lamp with UV filter removed, 170,000 lux, one week; transmittance at maximum absorption wavelength
Method: Was dissolved 5 mg of the exemplified compound (1) in 100 mL of ethyl acetate and then the resulting solution was diluted with ethyl acetate so that absorbance became the range of from 0.95 to 1.05. Similarly, sample solutions of Exemplified Compounds (2), (11), (12), (24), (81) and (82) and comparative compounds A and B, respectively, were prepared. The absorbance of each sample solution was determined in a 1 cm quartz cell by using Spectrophotometer UV-3600 (product name) manufactured by Shimadzu Corporation. The cell containing the sample solution was photoirradiated by a xenon lamp with its UV filter removed at an illuminance of 170,000 lux, and the amount of each ultraviolet absorbent remaining after irradiation for one week was determined. The residual amount was calculated according to the following Formula: Residual amount (%)=100×(100−Transmittance after irradiation)/(100−Transmittance before irradiation)
The transmittance is a value determined at the maximum absorption wavelength of each compound.

[3] = UV spectrum of sample solutions in ethyl acetate (Example 38); details: ethyl acetate solution, 1 cm quartz cell
Method: The absorption maximum wavelength and the half width specified in the present invention can be determined easily by a skilled person in the art. The measuring methods are described, for example, in Chemical Society of Japan Ed., “Experimental Chemistry Lecture, Chapter 7, Spectroscopy II”, 4th Ed., (Maruzen, 1992), p. 180 to 186. Specifically, they are determined by dissolving a sample in a suitable solvent and measuring the spectrum in a spectrophotometer by using two quartz or glass cells for the sample and control. For example, the solvent for use is required to be capable of dissolving the sample, have no absorption in the measurement wavelength range, have smaller interaction with the solute molecule, and have relatively low volatility. Any solvent may be used, as long as it satisfies the conditions above. In the present invention, the measurement is made by using ethyl acetate (EtOAc) as the solvent.
The absorption maximum wavelength and the half width of the dyes in the present invention are determined by preparing a solution in ethyl acetate as the solvent at a concentration of approximately 5×10^−5 mol·dm^−3 and by measurement while using a quartz cell having an optical path length of 10 mm.
The spectral half width is described, for example, in Chemical Society of Japan Ed., “Experimental Chemistry Lecture, Chapter 3 Basic Operation III”, 4th Ed., (Maruzen, 1991), p. 154. The half width is described in the literature above by using wave number as abscissa, but the half width is plotted against wavelength in the present invention and thus, the unit of the half value width is nm. Specifically, it is defined as the width of the absorption band at an absorbance of ½ of that at the absorption maximum wavelength and used as an indicator of the absorption spectral shape.
One mg of the Exemplified Compound (1) was dissolved in 100 ml of ethyl acetate, to give a sample solution. Similarly, sample solutions of Exemplified Compounds (2), (11), (12), (24), (81), (82), (87) and (88), respectively, were prepared. In addition, two mg of the comparative compound 1 was dissolved in 100 ml of ethyl acetate, to give a sample solution. Similarly, sample solutions of the comparative compounds 2 (the exemplified compound VIII described in JP-B-49-11155), 11 and 12, respectively, were also prepared. The UV spectrum of each sample solution was determined in a 1 cm quartz cell by using Spectrophotometer UV-3600 (product name) manufactured by Shimadzu Corporation. Based on the thus-obtained spectrum chart, were calculated the maximum absorption wavelength, the molar extinction coefficient (ε) at the maximum absorption wavelength and the half width (a width of absorption band corresponding to a half extinction at the maximum absorption wavelength).

coloring of the film (in words) [1]	absorbance at 420 nm [1] [%]	absorbance at 440 nm [1] [%]	absorbance at 460 nm [1] [%]	Colored (visual) [1]	absorbance at 400 nm [1] [%]	Residual amount (%) [2] [%]	Half width (nm) [3] [nm]	ε, molar extinction coefficient at the maximum absorption wavelength [3]	λmax (nm), maximum absorption wavelength [3] [nm]	Compound
more colored yellow	45	65	85	x	1					CC(C)(C)CC(C)(C)c1cc(Cc2cc(C(C)(C)CC(C)(C)C)cc(-n3nc4ccccc4n3)c2O)c(O)c(-n2nc3ccccc3n2)c1 [Za]
						38				COc1ccc(C(=O)CC(=O)c2ccc(C(C)(C)C)cc2)cc1 [Comparative compound B]
coloring was also observed	65	72	78	Δ to x	1		39	28000	360	CCCCC(CC)COc1ccc(OCC(CC)CCCC)c2c1SC(=C(C#N)C(=O)OCC)S2 (centres unmarked) [Comparative compound 12]
							45	24000	369	CCCCC(CC)C(=O)Oc1ccc(OC(=O)C(CC)CCCC)c2c1SC(=C(C#N)C#N)S2 (centres unmarked) [Comparative compound 1]
							46	23000	363	CCCCCCCCCCCCOc1ccc(OCCCCCCCCCCCC)c2c1SC(=C(C#N)C#N)S2 [Comparative compound 2]
						76				COc1ccc(C(=O)c2ccc(OC)cc2O)c(O)c1 [Comparative compound A]
